Structures can show the parent of a compound that is named as a salt.

What all share (type): biochemical
Assay [1] has as its target T1, His-MPB tagged HECT of HECW2 (E3 ligase) (Homo sapiens, UniProt Q9P2P5).
T1 construct: using His-MPB tagged HECT of HECW2 (E3 ligase) instead of untagged HECT of NEDD4 wild-type (WT) (E3 ligase); made in house
Put plainly: In vitro ubiquitination assay TR-FRET based, HECW2. Particulars: read-out: percentage of inhibition (HECW2). How it is done: (§1) To determine the selectivity of identified NEDD4 inhibitors, it was quantitatively measured the self-ubiquitination process of the E3 HECT ligase belonging to NEDD4 family such as NEDD4L, HECW2 and ITCH in presence or not of some compounds such as 5, 9, 12, 29, 42, 45, 56, 58, 61, 77, 78, 85 and 94 employing TR-FRET based assays.
The assay was performed as described above in the paragraph titled “In vitro ubiquitination assay TR-FRET based” under the heading “2.1. NEDD4 UBIQUITINATION ASSAYS” using His-MPB tagged HECT of HECW2 (E3 ligase) instead of untagged HECT of NEDD4 wild-type (WT) (E3 ligase). In this case, final E1, E2 and E3 concentrations in the assay buffer (Tris-HCl pH 7.6 25 mM, NaCl 100 mM, MgCl2 5 mM and Tween 0.01%) were 30, 350 and 62.5 nanomolars, respectively. His-MPB tagged HECT of HECW2 (E3 ligase) enzyme was produced and purified as reported in E. Maspero et al. Methods Mol Biol. 1449:153-60 (2016) and in E. Maspero et al. EMBO Reports 12:342-349(2011).

Assay [2] addresses T2, untagged HECT of ITCH (E3 ligase) (Homo sapiens, UniProt Q96J02).
T2 construct: using untagged HECT of ITCH (E3 ligase) instead of untagged HECT of NEDD4 wild-type (WT) (E3 ligase); made in house
Put plainly: In vitro ubiquitination assay TR-FRET based, ITCH. Particulars: read-out: percentage of inhibition (ITCH). How it is done: as §1
The assay was performed as described above in the paragraph titled “In vitro ubiquitination assay TR-FRET based” under the heading “2.1. NEDD4 UBIQUITINATION ASSAYS” using untagged HECT of ITCH (E3 ligase) instead of untagged HECT of NEDD4 wild-type (WT) (E3 ligase). In this case, final E1, E2 and E3 concentrations in the assay buffer (Tris-HCl pH 7.6 25 mM, NaCl 100 mM, MgCl2 5 mM and Tween 0.01%) were 30, 350 and 60 nanomolars, respectively. Untagged HECT of ITCH (E3 ligase) enzyme was produced and purified as reported in E. Maspero et al. Methods Mol Biol. 1449:153-60 (2016) and in E. Maspero et al. EMBO Reports 12:342-349(2011).

Assay [3] concerns the target T3, untagged HECT of NEDD4L (E3 ligase) (Homo sapiens, UniProt Q96PU5).
T3 construct: using untagged HECT of NEDD4L (E3 ligase) instead of untagged HECT of NEDD4 wild-type (WT) (E3 ligase); made in house; host or cells: bacteria (printed for the NEDD4L HECT of the western-blot assay; not repeated here)
T3 sequence (Q96PU5 594-975 limits assumed): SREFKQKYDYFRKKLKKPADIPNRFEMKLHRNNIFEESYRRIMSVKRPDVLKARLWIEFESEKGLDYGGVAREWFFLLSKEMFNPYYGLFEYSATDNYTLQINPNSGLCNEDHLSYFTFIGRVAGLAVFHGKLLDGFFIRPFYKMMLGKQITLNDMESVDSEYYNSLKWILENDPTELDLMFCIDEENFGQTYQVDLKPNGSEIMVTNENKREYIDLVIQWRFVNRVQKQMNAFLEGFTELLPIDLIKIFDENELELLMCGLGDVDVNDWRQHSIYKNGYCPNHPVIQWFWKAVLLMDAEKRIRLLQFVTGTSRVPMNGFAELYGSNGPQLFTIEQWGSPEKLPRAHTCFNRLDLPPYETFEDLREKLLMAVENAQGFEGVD
Put plainly: In vitro ubiquitination assay TR-FRET based, NEDD4L. Particulars: read-out: percentage of inhibition (NEDD4L). How it is done:
as §1
The assay was performed as described above in the paragraph titled “In vitro ubiquitination assay TR-FRET based” under the heading “2.1. NEDD4 UBIQUITINATION ASSAYS” using untagged HECT of NEDD4L (E3 ligase) instead of untagged HECT of NEDD4 wild-type (WT) (E3 ligase). In this case, final E1, E2 and E3 concentrations in the assay buffer (Tris-HCl pH 7.6 25 mM, NaCl 100 mM, MgCl2 5 mM and Tween 0.01%) were 30, 350 and 31.3 nanomolars, respectively. Untagged HECT NEDD4L (E3 ligase) enzyme was produced and purified as reported in E. Maspero et al. Methods Mol Biol. 1449:153-60 (2016) and in E. Maspero et al. EMBO Reports 12:342-349(2011).

T1 sequence (Q9P2P5 1237-1572 limits assumed): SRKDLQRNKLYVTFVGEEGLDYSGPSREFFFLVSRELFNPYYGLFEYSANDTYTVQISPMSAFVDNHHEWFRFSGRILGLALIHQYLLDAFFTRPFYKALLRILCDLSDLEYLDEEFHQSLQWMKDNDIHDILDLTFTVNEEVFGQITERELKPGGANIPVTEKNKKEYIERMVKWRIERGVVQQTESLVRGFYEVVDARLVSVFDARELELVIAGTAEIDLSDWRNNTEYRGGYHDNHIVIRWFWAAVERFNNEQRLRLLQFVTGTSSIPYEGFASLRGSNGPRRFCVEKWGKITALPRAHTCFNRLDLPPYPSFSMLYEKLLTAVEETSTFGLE
T2 sequence (Q96J02 569-903 limits assumed): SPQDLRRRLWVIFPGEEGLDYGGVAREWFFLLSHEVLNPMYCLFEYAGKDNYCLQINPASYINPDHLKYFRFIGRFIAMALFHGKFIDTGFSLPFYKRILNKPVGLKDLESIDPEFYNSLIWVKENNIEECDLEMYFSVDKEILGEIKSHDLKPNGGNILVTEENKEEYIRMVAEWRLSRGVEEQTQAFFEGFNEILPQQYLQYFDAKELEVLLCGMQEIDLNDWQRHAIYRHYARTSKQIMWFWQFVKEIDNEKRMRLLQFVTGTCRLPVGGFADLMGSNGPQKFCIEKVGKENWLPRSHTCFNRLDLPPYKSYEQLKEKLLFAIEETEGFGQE

`C#CCON(C)C(=O)/C=C/CN(C)CCCCN1c2ccccc2CCc2ccc(Cl)cc21` [Compound 77, (E)-4-[4-(3-Chloro-10,11-dihydro-5H-dibenzo[b,f]azepin-5-yl)butyl-methyl-amino]-N-methyl-N-prop-2-ynoxy-but-2-enamide maleate]: the inhibition at 11 µM in assay [1] is below 15%; in assay [2], below 5%; in assay [3] it was below 15%.
As for `CON(C)C(=O)/C=C/CN(C)CCCCN1c2ccccc2CCc2ccc(Cl)cc21` [Compound 9, (E)-4-[4-(3-Chloro-10,11-dihydro-5H-dibenzo[b,f]azepin-5-yl)butyl-methyl-amino]-N-methoxy-N-methyl-but-2-enamide], the inhibition at 11 µM in assay [1] was below 5%; in assay [2], below 20%; in assay [3], below 5%.
Take `CCOC(=O)/C=C/CNCCCCN1c2cc(Cl)ccc2C(=O)N(Cc2ccccc2)c2ccccc21` [Compound 56, Ethyl (E)-4-((4-(10-benzyl-3-chloro-11-oxo-10,11-dihydro-5H-dibenzo[b,e][1,4]diazepin-5-yl)butyl)amino)but-2-enoate maleate]: the inhibition at 11 µM in assay [1] is below 15%; in assay [2], below 15%; in assay [3], at most 20%.
For the compound `COC(=O)/C=C/CN(C)CCCCN1c2cc(Cl)ccc2C(=O)N(Cc2ccccc2)c2ccccc21` [Compound 58, Methyl (E)-4-{[4-(10-benzyl-3-chloro-11-oxo-10,11-dihydro-5H-dibenzo[b,e][1,4]diazepin-5-yl)butyl](methyl)amino}but-2-enoate maleate], the inhibition at 11 µM in assay [1] was below 5%; in assay [2], below 15%; in assay [3] it was below 5%.
Turning to `CN(C/C=C/C(=O)OCCOCCOCCOCCNC(=O)CCCC[C@@H]1SC[C@@H]2NC(=O)N[C@@H]21)CCCCN1c2ccccc2CCc2ccc(Cl)cc21` [Compound 94, 2-[2-(2-{2-[5-((3aS,4S,6aR)-2-Oxo-hexahydro-thieno[3,4-d]imidazol-4-yl)-pentanoylamino]-ethoxy}-ethoxy)-ethoxy]-ethyl (E)-4-{[4-(3-chloro-10,11-dihydro-dibenzo[b,f]azepin-5-yl)-butyl]-methyl-amino}but-2-enoate], the inhibition at 11 µM in assay [1], in assay [2] and in assay [3] was below 15% throughout.
Take `CCOC(=O)/C=C/CNCCCCN1c2ccccc2C(=O)N(C)c2ccc(Cl)cc21` [Compound 29, Ethyl (E)-4-{[4-(7-chloro-10-methyl-11-oxo-10,11-dihydro-5H-dibenzo[b,e][1,4]diazepin-5-yl)butyl]amino}but-2-enoate maleate]: the results for the inhibition at 11 µM in assay [1], in assay [2] and in assay [3] were below 15%, below 5% and at most 20%, respectively.
For `CCOC(=O)/C=C/CCNCCCN1c2ccccc2CCc2ccc(Cl)cc21` [Compound 5, Ethyl (E)-5-[3-(3-chloro-10,11-dihydro-5H-dibenzo[b,f]azepin-5-yl)propylamino]pent-2-enoate maleate], the inhibition at 11 µM in assay [1], in assay [2] and in assay [3] was below 15% throughout.
Regarding `CN(C/C=C/C#N)CCCCN1c2cc(Cl)ccc2C(=O)N(Cc2ccccc2)c2ccccc21` [Compound 61, (E)-4-{[4-(10-benzyl-3-chloro-11-oxo-10,11-dihydro-5H-dibenzo[b,e][1,4]diazepin-5-yl)butyl](methyl)amino}but-2-enenitrile maleate], the inhibition at 11 µM in assay [1], in assay [2] and in assay [3] was below 5% throughout.
As to `CONC(=O)/C=C/CNCCCCN1c2ccccc2CCc2ccc(Cl)cc21` [Compound 78, (E)-4-[4-(3-Chloro-10,11-dihydro-5H-dibenzo[b,f]azepin-5-yl)butylamino]-N-methoxy-but-2-enamide maleate], the inhibition at 11 µM is below 5% in assay [1], below 20% in assay [2] and below 5% in assay [3].
Take `CCOC(=O)/C=C/CNCCCCN1c2cc(Cl)ccc2C(=O)N(C)c2ccccc21` [Compound 42, Ethyl (E)-4-{[4-(3-chloro-10-methyl-11-oxo-10,11-dihydro-5H-dibenzo[b,e][1,4]diazepin-5-yl)butyl]amino}but-2-enoate maleate]: the inhibition at 11 µM in assay [1], in assay [2] and in assay [3] was below 15% each time.
Turning to `CCOC(=O)/C=C/CNCCCCN1c2ccccc2C(=O)N(Cc2ccccc2)c2ccc(Cl)cc21` [Compound 45, Ethyl (E)-4-{[4-(10-benzyl-7-chloro-11-oxo-10,11-dihydro-5H-dibenzo[b,e][1,4]diazepin-5-yl)butyl]amino}but-2-enoate maleate], the inhibition at 11 µM is below 20% in assay [1], below 5% in assay [2] and at most 20% in assay [3].
On to `CONC(=O)/C=C/CN(C)CCCCN1c2ccccc2CCc2ccc(Cl)cc21` [Compound 85, (E)-4-[4-(3-Chloro-10,11-dihydro-5H-dibenzo[b,f]azepin-5-yl)butyl-methyl-amino]-N-methoxy-but-2-enamide maleate], for which the results for the inhibition at 11 µM in assay [1], in assay [2] and in assay [3] were below 5%, below 25% and below 5%, respectively.
Turning to `CCOC(=O)/C=C/CNCCCCN1c2ccccc2CCc2ccc(Cl)cc21.O=C(O)/C=C\C(=O)O` [Compound 12, Ethyl (E)-4-[4-(3-chloro-10,11-dihydro-5H-dibenzo[b,f]azepin-5-yl)butylamino]but-2-enoate maleate], the inhibition at 11 µM in assay [1] is below 5%; in assay [2] it was below 5%; in assay [3], below 15%.
